Tested on: SARS-CoV2 original Wuhan strain, Alpha, Delta and Omicron viruses
Test: Replication of SARS-CoV-2 circulating forms in pulmonary A549-ACE2 cells
Assay type: cell-based
Settings: Severe acute respiratory syndrome coronavirus 2, read-out: IC50, block of viral replication of all variants

O=S(=O)(c1ccccc1)n1c(-c2cncc(-c3cc4cc(OCc5ccccc5)ccc4n3S(=O)(=O)c3ccccc3)c2)cc2cc(OCc3ccccc3)ccc21 [AB-00011778]
IC50: 500 to 1000 nM

Source: US20260158015A1 (Universite De Bordeaux, priority 2021, published 2026)
